Source: patent US4975354A, “Photographic element comprising an ethyleneoxy-substituted amino compound and process adapted to provide high constrast development” (Eastman Kodak Company, priority 1989, dated 1990)

Test: Example 33: Film A (no incorporated booster) in Developer A versus Film B (Compound XIII) in Developer B, 80 seconds at 30° C.
Settings: Table III data
Description: This example was carried out using photographic elements similar to those of Examples 1 to 32 except that the nucleating agent employed was a mixture of the hydrazine compound: [drawing 33] at a coverage of 0.0121 g/m^2 and the hydrazine compound: [drawing 34] at a coverage of 0.00237 g/m^2.
A film designated Film A was prepared with no incorporated booster compound, while a film designated Film B contained 0.0861 g/m^2 of Compound XIII. A developing solution, designated Developer A, was formulated from the following ingredients: […]
A second developing solution, designated Developer B, differed from Developer A in that the 3-diethylamino-1,2-propanediol was omitted.
Film A was developed in Developer A at a pH of 11.6 for 80 seconds at 30° C. Film B was developed in Developer B for 80 seconds at 30° C. at pH levels of 11.6, 11.5 and 11.4. The pH's of the developing solutions were adjusted to the designated levels using concentrated potassium hydroxide and concentrated hydrochloric acid.

## CCN(CC)CC(O)CO (stereo not shown) [3-diethylamino-1,2-propanediol]
  booster activity (in words): highly effective booster compound
